Assay results reported in US20100074897A1, “Methods and Compositions related to HIF-1 alpha” (University of Utah Research Foundation, priority 2006, published 2010).

Legend:
NBS1 [1] = test: NBS1 mRNA levels by real-time PCR in HCT116 cells; assay type: cell-based, human; conditions: siRNA, hypoxia 1% O2 16 h
Experimental: HCT116 TP53^+/+, HCT116 TP53^−/− cells (Koshiji et al., 2004), and U-2 OS were grown in McCoy's 5A medium (Invitrogen), and HeLa cells in DMEM. For hypoxic treatment, cells were incubated in a hypoxic chamber (Innova CO-48, New Brunswick Scientific) maintaining 1% O2 and 5% CO2. Recombinant adenovirus generation and infection were as previously described (Koshiji et al., 2004).
Total RNA extraction, reverse transcription, and quantitative PCR were performed essentially as described previously (Koshiji et al., 2005). Taqman Gene Expression Assay kits for NBS1, MRE11A, RAD50, MSH2, and ACTB were purchased from Applied Biosystems. All experiments were repeated three times in triplicates, and representative results were presented as means±standard errors.

HIF-2α = test: Western blot after siRNA transfection of HCT116 cells; assay type: cell-based, human
Experimental: (§1) Western Blot. Western blot analysis was carried out as described previously.
(§2) RNA Interference. Transfection with siRNA duplexes and siRNA sequence information were described previously (Koshiji et al. 2005). CHK1 siRNA was described previously (Zhao et al. 2002). Luciferase siRNA was used as negative control.

HIF-1α = test: as above; assay type: cell-based, human
Experimental: as §1, §2

CDC25A promoter = test: CDC25A reporter (luciferase) assay in HCT116 cells; assay type: cell-based, human; conditions: hypoxia
Experimental: Reporter Assay. Reporter assays were conducted as described previously (Huang et al. 2002). The Myc effect on the reporter was examined by cotransfection with 0.4 μg pMyc (Koshiji et al. 2004a) or as specified.

CDC25A = CDC25A and PGK1 mRNA by real-time RT-PCR in siRNA-transfected HCT116 cells; assay type: cell-based, human; conditions: siRNA 24 h then hypoxia 16 h
Experimental: Real-Time RT-PCR. Real-time RT-PCR was performed essentially as described previously (Koshiji et al. 2005). Primer and probe (Applied Biosystems) sequences were as follows: CDC25A, forward 5′-[…]-3′ (SEQ ID NO: 25), reverse 5′-[…]-3′ (SEQ ID NO: 26), probe 5′-FAM-[…]-MGB-3′ (SEQ ID NO: 27). PGK-1 (FAM-MGB probe) and ACTB (VIC-MGB probe) were detected with endogenous control reagents from Applied Biosystems. β-actin primers and probe were included into each reaction for normalization. All the experiments were repeated three times in triplicate, and representative results were presented in mean±standard error.
as §2

NBS1 [2] = test: NBS1 protein levels by immunoblot in U-2 OS cells expressing PAS-B variants; assay type: cell-based; conditions: forced expression in U-2 OS cells
Experimental: Immunoprecipitations and Western blot was performed essentially as described previously (Huang et al., 1998; Koshiji et al., 2005). In vitro translation and immunoprecipitations are described as before (Gu et al., 2001; Koshiji et al., 2005). The wheat germ extract system was purchased from Promega. λ protein phosphatase (New England Biolabs) and resveratrol (Sigma) with indicated concentrations were added to the in vitro translated products before immunoprecipitations.
U-2 OS cells were transfected with the Nucleofector system (Amaxa). Briefly, 1×10^6 cells were suspended in 100 μl pre-warmed Nucleofector Solution Kit V containing 2 μg plasmids. After electroporation the cells were transferred immediately into pre-warmed complete McCoy's 5A medium and seeded in 6-well plates. Cells were harvested 48 h after transfection.

U-2 OS cells [3] = test: anchorage-independent growth on soft agar; assay type: cell-based; conditions: retrovirally infected U-2 OS cells
Experimental: (§3) A, retrovirally infected HCT116 cells expressing EYFP, HIF-1α PAS-B, and mutant were assayed for Matrigel invasion. Images of cells on the membrane side were taken 24 h later. B, U-2 OS cells infected as above were assayed for anchorage-independent growth on soft agar. HIF-1α PAS-B expressed cells gave rise to formation of colonies 40 times more than others. HCT116 cells (known to grow on soft agar) were used as a positive control. Mock, uninfected cells.

U-2 OS cells [4] = test: tumor formation in a xenografted mouse model; assay type: in vivo; conditions: athymic mice, subcutaneous injection of 1 million U-2 OS cells, within three weeks
Text: Female BALB/c-nu/nu mice were subjected to bilateral, subcutaneous injections in the back with 1 million of U-2 OS cells, or those expressing EYFP, HIF-1α PAS-B, or the HIF-1α PAS-B mutant. A total of ten mice were divided into two groups with one type of cells injected on one side and another on the other side.

HCT116 cells = test: Matrigel invasion; assay type: cell-based, human; conditions: retrovirally infected HCT116 cells, 24 h
Experimental: as §3

β-catenin = test: immunoblotting of epithelial marker in retrovirally infected U-2 OS cells; assay type: cell-based
Experimental: A, Cells as indicated were infected by retroviruses expressing EYFP, EYFP-PAS-B fusion, and EYFP-PAS-B mutant. […] B, U-2 OS and those infected with retroviruses as above were analyzed by immunoblotting individual protein expression as indicated.

Sp1 = target: T1, Sp1 (Oryctolagus cuniculus, UniProt G1SL61); test: anti-Sp1 immunoprecipitation of in vitro translated products; assay type: binding, rabbit; conditions: translated in rabbit reticulocyte lysate
T1 construct: from tissue; host or cells: rabbit reticulocyte lysate (in vitro translation system)
Experimental: Previously, it was shown that Myc displacement is mediated by the N-terminal HIF-1α (1-329), which competes with Myc for Sp1 binding in the MSH2 promoter (Koshiji et al, 2005). […] […] […] Of note, removal of part of the PAS-B from the C terminus (codon 299-329) destroyed Sp1 binding.
Immunoprecipitations and Western blot was performed essentially as described previously (Huang et al., 1998; Koshiji et al., 2005). In vitro translation and immunoprecipitations are described as before (Gu et al., 2001; Koshiji et al., 2005). […]

U-2 OS cells [5] = test: immunofluorescent staining of γ-H2AX foci (DNA DSBs); assay type: cell-based; conditions: U-2 OS cells transiently expressing PAS-B variants
Experimental: To ascertain the functional relevance of NBS1 repression by hypoxia, the extent of DNA damage was assessed by immunofluorescent staining of γ-H2AX foci, a most sensitive method for quantifying DNA DSBs (Rogakou et al, 1998, 1999). […] Furthermore, results also show strikingly colocalized foci of γ-H2AX and 53BP1, the latter of which is known to interact with various DNA repair proteins including γ-H2AX in response to DSBs (Schultz et al, 2000). Thus, hypoxic cells experience DNA DSBs, presumably resulting from the NBS1 repression.
Immunofluorescence staining was performed essentially as described previously (Rogakou et al, 1999) with mouse anti-γ-H2AX antibody (Upstate) and rabbit anti-53BP1 (Novus Biologicals). Secondary antibodies were anti-mouse Alexa-546 and anti-rabbit Alexa-488 (Molecular Probes). Samples were mounted in antifade media, and were examined by fluorescent and laser-scanning confocal microscopy with a Nikon PCM 2000.

T1 sequence (G1SL61 1-788): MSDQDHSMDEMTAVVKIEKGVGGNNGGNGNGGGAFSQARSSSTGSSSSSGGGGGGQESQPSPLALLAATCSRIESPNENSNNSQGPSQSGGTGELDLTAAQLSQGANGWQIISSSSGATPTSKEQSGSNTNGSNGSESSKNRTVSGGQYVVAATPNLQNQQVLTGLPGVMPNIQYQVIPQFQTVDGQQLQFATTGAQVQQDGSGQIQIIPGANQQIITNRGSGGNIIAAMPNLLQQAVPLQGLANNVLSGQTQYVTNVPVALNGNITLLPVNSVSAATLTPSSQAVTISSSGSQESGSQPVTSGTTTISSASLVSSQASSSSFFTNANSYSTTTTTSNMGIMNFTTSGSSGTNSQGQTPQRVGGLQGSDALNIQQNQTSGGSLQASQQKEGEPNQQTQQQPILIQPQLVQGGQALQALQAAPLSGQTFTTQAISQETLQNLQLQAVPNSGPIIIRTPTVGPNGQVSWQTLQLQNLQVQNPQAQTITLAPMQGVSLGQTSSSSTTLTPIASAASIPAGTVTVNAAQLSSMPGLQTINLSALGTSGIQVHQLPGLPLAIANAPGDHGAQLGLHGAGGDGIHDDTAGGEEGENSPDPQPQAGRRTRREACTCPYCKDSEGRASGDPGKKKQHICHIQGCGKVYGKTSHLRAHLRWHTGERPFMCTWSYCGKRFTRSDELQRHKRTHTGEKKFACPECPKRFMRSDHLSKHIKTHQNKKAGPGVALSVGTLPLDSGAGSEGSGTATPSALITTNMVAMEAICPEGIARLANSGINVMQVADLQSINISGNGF

Row | Sp1 binding (Sp1) | Substance | effect on NBS1 and MSH2 downregulation and PGK1 upregulation in hypoxic cells (NBS1 [1]) | HIF-2α levels (HIF-2α) | decrease of HIF-1α protein levels (HIF-1α) [%] | hypoxic inhibition of CDC25A reporter expression (CDC25A promoter) | effect on hypoxic CDC25A down-regulation and PGK1 up-regulation (CDC25A) | NBS1 protein levels (NBS1 [2]) | formation of colonies on soft agar relative to others (U-2 OS cells [3]) [times] | tumor nodules formation (U-2 OS cells [4]) | invasiveness versus controls (HCT116 cells) | β-catenin protein expression (β-catenin) | γ-H2AX foci colocalized with 53BP1 (U-2 OS cells [5])
1 | – | 5′-AACTGATGACCAGCAACTTGA-3′ [HIF1A siRNA] | abrogated | remained unaffected | > 80 | abrogated | effectively blocked the CDC25A down-regulation | – | – | – | – | – | –
2 | sufficient for Sp1 interaction | PAS1B: HIF-1α PAS-B domain (codon 194-329) | – | – | – | – | – | sufficient to eliminate NBS1 protein levels | 40 | formed tumor nodules | much more invasive | marked decrease | significantly increased
